Test results published in patent US5886190A, “Rapid synthesis and use of 18F-fluoromisonidazole and analogs” (priority 1997, dated 1999).

Legend:
mammary tumor = assay: Autoradiographic studies in tumor-bearing rats; conditions: 1 hour postinjection
Protocol: (§1) The synthesis scheme for [^18 F]FETNIM is depicted in FIG. 6. Biodistribution studies of [^18 F]FETNIM were performed at 1, 2 and 4 hours in mammary tumor-bearing rats (10 μCi, iv, N=3/time interval). Autoradiograms were performed at 1 hour postinjection of [^18 F]FETNIM, and a comparison has been made with [^18 F]fluoromisonidazole (FMISO). Intratumoral oxygen tension measurements were performed using the Eppendorf computerized histographic system. Twenty to twenty-five pO2 measurements along each of 2 to 3 linear tracks were performed at 0.4 mm intervals on each tumor. PET imaging studies of [^18 F]FETNIM were performed in rabbits bearing V2 tumors (N=3, 4 mCI, iv) which were located on the right leg.
Female Fischer 344 mammary tumor-bearing rats (n=3) after receiving [^18 F]FETNIM (2 mCi, iv) were sacrificed at 1 h. […] The rats were sacrificed at 1 hour postinjection. The rat body was fixed in a carboxymethyl cellulose (4%) block. The frozen body in a block was mounted to a cryostat (LKB 2250 cryo-microtome, Ijamsville, Md.) and 40 μm coronal sections were made. The section was freeze dried, then mounted on a x-ray film (X-Omat AR, Kodak, Rochester, N.Y.) for 24 hours.

[1] = type: in vivo, 70 Kg male (human)
Excerpt: The following Table summarizes the results of dosimetry calculation for radiation exposure to several […] tissues.
Dosimetry: Normal Tissue Dosimetry for ^18 F-FMISO

[2] = tested on: hypoxic elements within a tumor volume; assay: Patient studies of ^18 F-FMISO uptake in tumors; conditions: in vivo
Excerpt: In patient studies, the hypoxic elements within a tumor volume was defined as regions with a threshold regional tumor to plasma (^18 F-FMISO) ratio of ≥1.4 by 2 or more hours after injection.

rats = conditions: 2 mCi/Kg single dose; n=3; follow-up 5 days
Protocol: In addition, animal acute toxicity studies have been performed, rats (n=3) were administered 2 mCi/Kg as a single dose.

[3] = tested on: nasalpharyngeal cancer (NPC); assay: PET imaging of patients with nasalpharyngeal cancer; type: in vivo, human (patients); conditions: 10 mCi
Protocol: PET imaging studies were performed on two patients with nasalpharyngeal cancer (NPC). […] After each patient had received 10 mCi of [^18 F]FMISO, eight consecutive 15-min scans were taken. […] Each patient was also administered [^18 F]FDG to ascertain the tumor region.

hypoxic cells [4] = assay: Selectivity to hypoxic cells (PET imaging, autoradiograms, biodistribution); conditions: in vivo
Protocol: as §1
PET imaging was performed with a positron camera (Positron Corporation, Houston, Tex.). The tomograph has a field-of-view of 42 cm on transverse and 12 cm on coronal planes. The axial resolution on the reconstructed plane is 1.2 cm. […]
Female Fischer 344 rats (250-275 g) (Harlan, Inc., Indianapolis, Ind.) were inoculated with mammary tumor cells in the lumbar area using a 13762 tumor cell line (s.c. 10^5 cells/rat). […] The tissues were excised, weighed and counted for radioactivity. The percent of injected dose per gram of tissue weight was determined.

[5] = tested on: hypoxic elements within a tumor volume; conditions: 2 or more hours after injection; cited from earlier work
[6] = tested on: intracellular nitroreductases; conditions: cited from earlier work
hypoxic cells [7] = conditions: radiobiologically significant oxygen levels; cited from earlier work

## O=[N+]([O-])c1nccn1CC(O)C[18F] (stereo not shown) [[^18 F]FMISO, 3-[^18 F]Fluoro-1-(2'-nitro-1'-imidazoyl)-2-propanol]
Mammary tumor
  Uptake in intestines and colon: high uptake
Mammary tumor; autoradiogram
  Differentiation of hypoxic versus necrotic regions in the tumor: could differentiate hypoxic versus necrotic regions in the tumor
[1]; 70 Kg male, 0.1 mCi/Kg
  Bladder wall dose relative to muscle dose: about five times as much
  Liver and kidney dose relative to muscle dose: nearly twice the muscle dose
  Total body musculature dose in a routine study: 120 mrem
[1]; bladder, 7 mCi/70 Kg, n = 2
  Normal tissue dose, bladder: 570 mrad
[1]; bladder, ± SD
  Normal tissue dosimetry, bladder: 81.5 ± 47 mrad/mCi
[1]; kidney, 7 mCi/70 Kg, n = 3
  Normal tissue dose, kidney: 180 mrad
[1]; kidney, ± SD
  Normal tissue dosimetry, kidney: 25.8 ± 5.5 mrad/mCi
[1]; liver, 7 mCi/70 Kg, n = 3
  Normal tissue dose, liver: 190 mrad
[1]; liver, ± SD
  Normal tissue dosimetry, liver: 26.8 ± 9.7 mrad/mCi
[1]; muscle, 7 mCi/70 Kg, n = 6
  Normal tissue dose, muscle: 120 mrad
[1]; muscle, ± SD
  Normal tissue dosimetry, muscle: 16.8 ± 7.9 mrad/mCi
[2]
  Feasibility of detecting hypoxia in human head and neck tumors: feasibility of using ^18 F-FMISO to detect hypoxia in human head and neck tumors
rats
  Acute toxicity: All rats tolerated this dose without toxicity
[3]
  Detection of hypoxic tumors by PET: able to detect primary or metastatic hypoxic tumors
[3]; first patient
  PET tumor uptake, first patient: showed tumor uptake in the lymph node region
[3]; second patient
  PET finding, second patient: the recurrent primary tumor is hypoxic
Hypoxic cells [4]
  Selectivity to hypoxic cells: selective to hypoxic cells
[5]
  Threshold regional tumor to plasma ratio defining hypoxic elements: ≥ 1.4
[6]
  Metabolism: metabolized by intracellular nitroreductases
Hypoxic cells [7]
  Selective binding to hypoxic cells: bind selectively to hypoxic cells in vitro and in vivo
